Structures are written as SMILES.

Assay [1] concerns Purkinje cells cultured from embryonic mouse cerebellum. Nature of the assay: LTD of glutamate-evoked inward current in cultured Purkinje cells (glutamate test pulses paired with depolarizing steps). The note with it: t=40 min; TAPI-2 10 μM, GM6001 1 μM, GM6001 control compound 1 μM; n=7. Type of assay: cell-based. On the procedure:
(§1) Recording and Ca^2+ imaging in cerebellar cultures. Cultures of embryonic mouse cerebellum were prepared as previously described and recordings were performed according to our previously published method (Leitges et al., Neuron 44:585-94, 2004). […]. Test pulses were delivered using negative current pulses (300-700 nA, 30-80 msec duration). LTD-inducing pairing stimuli consisted of six, 3-s-long depolarizations to 0 mV, each delivered together with a test pulse of glutamate.
(§2) Membrane currents were recorded with an Axopatch 200A amplifier, and digitized at 10 kHz for exogenous glutamate responses and 20 kHz for mEPSCs. Signals were lowpass filtered at 5 kHz (1 kHz for mEPSCs) and acquired using Axograph X software (Axograph Scientific, Sydney, Australia). Recordings in which Rinput or Rseries varied by more than 10% were excluded from the analysis. For analysis of mEPSCs, Axograph X mini analysis software was used. This detected events based on closeness of fit of the mEPSC to a sliding template. Events smaller than − ? 4 pA were discarded. A separate template was created for each recording by averaging 30 of its most unambiguous mEPSCs as selected by eye.
Other studies have shown that LTD in Purkinje cells cultured from embryonic mouse cerebellum requires activation of mGluR1, and is expressed postsynaptically as a reduction in surface AMPA receptors (Chung et al., Science 300:1751-5, 2003; Leitges et al., Neuron 44:585-94, 2004; Linden, PNAS 98:14066-71, 2001; Matsuda et al., EMBO J. 19:2765-74, 2000; Steinberg et al., Neuron 49:845-60, 2006; Wang and Linden, Neuron 25:635-47, 2000). Here, LTD was examined using a purely postsynaptic model in which iontophoretic test pulses of glutamate are applied to voltage-clamped Purkinje cells in culture. Following a baseline recording period, LTD was induced by pairing six 3 sec long depolarizing steps to 0 mV with six glutamate test pulses. When test pulses were resumed after pairing, LTD of the glutamate-evoked inward current was evident (52±9.0% of baseline at t=40 min, n=7 cells, FIG. 6A). […]

For assay [2], the system named is cultured cerebellar Purkinje cells. Nature of the assay: Basal electrophysiological properties and Ca2+ imaging in cultured cerebellar Purkinje cells. Type of assay: cell-based, mouse. Conditions: TAPI-2 10 μM; GM6001 1 μM; GM6001 control 1 μM; mean ± SEM. Here is the method: as §1, §2
Bis-Fura-2 ratio imaging of intracellular free Ca^2+ in the dendritic shafts of cultured Purkinje cells was accomplished by measuring the background corrected fluorescence ratio at 340 and 380 nm excitation using a cooled CCD camera system. In these experiments, EGTA was removed from the internal saline and replaced with 100 μM bis-Fura-2.

Assay [3] has as its system Schaffer collateral-CA1 synapse. Nature of the assay: mGluR1/5-dependent LTD in hippocampal slices (field EPSP recording). The assay is classed as cell-based, mouse. Conditions: for fEPSP slope after DHPG-induced LTD: control mouse slices, t=75 min, DHPG 50 μM for 5 min, TAPI-2 50 μM for 20 min starting 15 min before DHPG. Here is the method:
mGluR1/5-dependent LTD in hippocampus. Hippocampal slices from postnatal day 21 to 28 mice were prepared as previously described (Huber et al., Science 288:1254-[…]). […] Transverse slices (400 μm thick) were cut on a Vibratome 3000 (The Vibratome company). Slices were transferred to a reservoir chamber filled with a normal aCSF which comprised (in mM): 124 mM NaCl, 2.5 mM KCl, 1.3 mM MgCl2, 2.5 mM CaCl2, 1 mM NaH2PO4, 26.2 mM NaHCO3, and 20 D-glucose. Slices were allowed to recover for 2-6 hr at room temperature (22-24° C.). For recording, slices were transferred to an interface type chamber, maintained at 32° C. for 1 hr, and perfused continuously with aCSF at a rate of 2.5 mL/min. Standard methods were used to record field EPSPs (fEPSPs) from the stratum radiatum in response to stimulation of the Schaffer collateral-commissural pathway with a concentric bipolar tungsten electrode (FHC, Bowdoin, Me.). The stimulus intensity was adjusted to elicit 50-60% of the maximal response. Evoked responses were stored on-line and analyzed off-line using Clampfit (Ver. 9.2). […] The strength of the synaptic response was measured as the fEPFP slope. […] LTD was expressed as percentage of the fEPSP slope during the baseline recording. All data shown for the time course are mean±SEM.

Assay [4] deals with NPR cleavage at Site A (TACE). Put plainly: NPR cleavage assay in transfected HEK293T cells. The assay is classed as cell-based, rat. The note with it: TAPI-2 50 μM; GM6001 25 μM. On the procedure: Cleavage Assay HEK293T cells were plated in OptiMEM (Invitrogen, Carlsbad, Calif.) containing 5% FBS onto 6-well dishes at a density of 4×10^5 cells/mL (2 mL/well) 1 day before transfection. Cells were transfected with NPR in pRK5 using LipofectAMINE 2000 (Invitrogen, Carlsbad Calif.). After 24 hr the medium was replaced with serum-free OptiMEM. […] Samples from each well were obtained at specific time points, immediately placed on ice, centrifuged at 15,000 g to remove cell debris, and then treated with 2% β-mercaptoethanol containing loading buffer. At the end of the time course, the cells were lysed with RIPA buffer, centrifuged to remove cell debris, and treated with 2% β-mercaptoethanol in loading buffer. Samples (20 μL of medium or lysate diluted to 1/5) were run on SDS-PAGE gels and analyzed by Western blotting.

For the compound `CC(C)C[C@H](CC(=O)NO)C(=O)N[C@H](C(=O)N[C@@H](C)C(=O)NCCN)C(C)(C)C` [TAPI-2], the “glutamate-evoked inward current after LTD induction” value in assay [1] is reported as 112±8.6 % of baseline. Moreover, in assay [2], the “DHPG-evoked (dendritic Ca2+ transient)” value was 231 ± 35 nM, the “Depol-evoked (dendritic Ca2+ transient)” value came out at 604 ± 89 nM, the “Resting Ca2+” value is reported as 109 ± 22 nM and the “mEPSC 10-90% rise” value was found to be 1.8 ± 0.4 msec. Moreover, in assay [2], the “mEPSC 50% decay” value stood at 7.7 ± 0.6 ms and the mEPSC amp stood at 27 ± 7 pA. Further, the “initial, phasic EPSP depression during DHPG treatment” value in assay [3] (TAPI-2 50 μM) is “no effect”. The “basal fEPSP slope or probability of release as indexed by paired pulse ratio (PPR)” value in assay [3] (TAPI-2 50 μM for 20 min) is on record as “did not alter”. For the same compound, in assay [3], the “fEPSP slope after DHPG-induced LTD” value is listed as 93.8±2.5 % of baseline. The “PP-1 Hz induced LTD (fEPSP slope)” value in assay [3] (control slices pretreated with TAPI-2 50 μM, t=50 min, n=4) is 101.8±5.6 % of baseline. Besides, in assay [4], the “PMA-stimulated cleavage at Site A / secretion of LFC-NPR into the medium” value is on record as “inhibited”.
In the case of `N[C@H](C(=O)O)c1cc(O)cc(O)c1` [DHPG, (S)-3,5-dihydroxyphenylglycine], in assay [3], the “fEPSP slope after DHPG-induced LTD” value is given as 74.0±3.3 % of baseline. Moreover, the “DHPG-induced LTD (fEPSP slope)” value in assay [3] (slices from NP TKO mice, n=9) is given as 85.9±4.1%; in assay [3] (slices from NPR KO mice, n=7), 96.3±2.5%; in assay [3] (slices from wild-type mice, n=13) it was 68.6±3.7%.
